# Reference: the NIST ThermoML archive (doi:10.1016/j.jct.2007.09.007)
# Numbers after ± are expanded uncertainties.
# Conditions: 101.33 kPa, Liquid
mass density (288.15 K),mass density (293.15 K),mass density (298.15 K),mass density (303.15 K),SMILES
1038.78 ± 0.24 kg/m3,1033.16 ± 0.23 kg/m3,1027.51 ± 0.22 kg/m3,1021.84 ± 0.21 kg/m3,"C1COCCO1 [1,4-dioxane]"
787.38 ± 0.23 kg/m3,782.01 ± 0.24 kg/m3,776.62 ± 0.24 kg/m3,771.19 ± 0.25 kg/m3,CC#N [acetonitrile]
728.82 ± 0.94 kg/m3,723.67 ± 0.95 kg/m3,718.46 ± 0.96 kg/m3,713.21 ± 0.97 kg/m3,CC(C)OC(C)C [diisopropyl ether]
892.86 ± 0.33 kg/m3,887.52 ± 0.34 kg/m3,882.04 ± 0.35 kg/m3,876.54 ± 0.36 kg/m3,C1CCOC1 [tetrahydrofuran]
